Laboratory results from DBAASP.
In brackets after ≈: the same amount, converted by molar mass. Blank lines part the entries; values can stand above or below the molecule they belong to.

What was measured:
Experiment in all cases: ≥ marks a high value that may be exact or a test limit, other limits are often not marked, values filed in µg/mL are converted to µM
Staphylococcus aureus = system: Staphylococcus aureus
Klebsiella pneumoniae = system: Klebsiella pneumoniae
[1] = system: Escherichia coli ATCC 25922
[2] = system: Staphylococcus aureus ATCC 25923
Candida albicans = system: Candida albicans
[3] = system: Pseudomonas aeruginosa ATCC 9027
[4] = system: Staphylococcus aureus ATCC 6538
[5] = system: Enterococcus faecalis ATCC 29212
[6] = system: Acinetobacter baumannii ATCC 19606
[7] = system: Staphylococcus aureus ATCC 29213
Bacillus subtilis = system: Bacillus subtilis
Escherichia coli = system: Escherichia coli
Acinetobacter baumannii = system: Acinetobacter baumannii
[8] = system: Klebsiella pneumoniae ATCC 700603
[9] = system: Bacillus subtilis ATCC 6633
[10] = system: Candida albicans ATCC 10231

Structure (SMILES): CC[C@H](C)[C@H](NC(=O)[C@H](CC(N)=O)NC(=O)[C@H](CCCCN)NC(=O)[C@H](CC(C)C)NC(=O)[C@H](Cc1ccccc1)NC(=O)[C@@H](NC(=O)[C@H](CCCCN)NC(=O)[C@H](Cc1c[nH]c2ccccc12)NC(=O)[C@H](CO)NC(=O)[C@H](C)N)C(C)C)C(=O)NCC(=O)N[C@@H](CCCCN)C(=O)N[C@@H](C)C(=O)N[C@@H](C)C(=O)NCC(=O)N[C@@H](CCCCN)C(=O)N[C@@H](C)C(=O)N[C@H](C(=O)N[C@@H](CC(C)C)C(=O)N[C@@H](CC(N)=O)C(=O)N[C@@H](CO)C(=O)N[C@H](C(=O)N[C@H](C(=O)N[C@@H](CC(=O)O)C(=O)N[C@@H](CCSC)C(=O)N[C@H](C(=O)N[C@@H](CC(N)=O)C(=O)N[C@@H](CCC(N)=O)C(N)=O)C(C)C)[C@@H](C)O)C(C)C)C(C)C [ASWKVFLKNIGKAAGKAVLNSVTDMVNQ]
- MIC (Staphylococcus aureus): 2.68 µM (≈ 8.01 µg/mL)
- MIC (Klebsiella pneumoniae): 10.7 µM (≈ 32 µg/mL)
- MIC [1]: 2.68 µM (≈ 8.01 µg/mL)
- MIC [2]: 2.68 µM (≈ 8.01 µg/mL)
- MIC (Candida albicans): 10.7 µM (≈ 32 µg/mL)

Structure (SMILES): CC(C)C[C@H](NC(=O)[C@H](CCCCN)NC(=O)[C@H](CCCCN)NC(=O)[C@H](C)NC(=O)[C@H](CC(C)C)NC(=O)[C@H](CCCCN)NC(=O)[C@H](C)NC(=O)[C@H](CCCCN)NC(=O)[C@H](CCCCN)NC(=O)[C@H](C)NC(=O)[C@H](CC(C)C)NC(=O)[C@H](CCCCN)NC(=O)[C@H](CCCCN)NC(=O)[C@H](C)NC(=O)[C@@H](N)Cc1ccccc1)C(N)=O [FAKKLAKKAKLAKKL]
- MIC [3]: 59.3 µM (≈ 99.9 µg/mL)
- MIC [4]: 119 µM (≈ 200 µg/mL)

Structure (SMILES): CC(C)C[C@H](NC(=O)[C@H](CCCCN)NC(=O)[C@H](CC(C)C)NC(=O)[C@H](C)NC(=O)[C@H](CCCCN)NC(=O)[C@H](C)NC(=O)[C@H](CC(C)C)NC(=O)[C@H](CC(C)C)NC(=O)[C@H](CCCCN)NC(=O)[C@H](CCCCN)NC(=O)[C@H](C)NC(=O)[C@@H](N)Cc1ccccc1)C(N)=O [FAKKLLAKALKL]
- MIC [3]: 149 µM (≈ 200 µg/mL)
- MIC [4]: > 149 µM

Structure (SMILES): CC(C)C[C@H](NC(=O)[C@H](C)NC(=O)[C@H](CCCCN)NC(=O)[C@H](CCCCN)NC(=O)[C@H](C)NC(=O)[C@H](CCCCN)NC(=O)[C@H](CCCCN)NC(=O)[C@H](CC(C)C)NC(=O)[C@H](C)NC(=O)[C@H](CCCCN)NC(=O)[C@H](CCCCN)NC(=O)[C@H](C)NC(=O)[C@H](CC(C)C)NC(=O)[C@H](C)NC(=O)[C@@H](N)Cc1ccccc1)C(N)=O [FALAKKALKKAKKAL]
- MIC [3]: 15.3 µM (≈ 25 µg/mL)
- MIC [4]: 61.4 µM (≈ 99.9 µg/mL)

Structure (SMILES): CC(C)C[C@H](NC(=O)[C@H](C)NC(=O)[C@H](CCCCN)NC(=O)[C@H](CCCCN)NC(=O)[C@H](CC(C)C)NC(=O)[C@H](C)NC(=O)[C@H](CCCCN)NC(=O)[C@H](CC(C)C)NC(=O)[C@H](C)NC(=O)[C@H](CC(C)C)NC(=O)[C@H](C)NC(=O)[C@@H](N)Cc1ccccc1)C(N)=O [FALALKALKKAL]
- MIC [3]: 38.9 µM (≈ 50 µg/mL)
- MIC [4]: 3.89 µM (≈ 5 µg/mL)

Structure (SMILES): CC(C)C[C@H](NC(=O)[C@@H](NC(=O)[C@H](CCCN=C(N)N)NC(=O)[C@H](CO)NC(=O)[C@H](CC(C)C)NC(=O)[C@H](C)NC(=O)[C@H](CC(N)=O)NC(=O)CNC(=O)[C@H](CC(C)C)NC(=O)[C@H](C)NC(=O)CNC(=O)[C@H](CC(C)C)NC(=O)[C@@H](N)Cc1ccccc1)C(C)C)C(N)=O [FLGALGNALSRVL]
- MIC [5]: > 64 µM
- MIC [6]: > 64 µM
- MIC [1]: > 64 µM
- MIC [7]: 32 µM (≈ 42.5 µg/mL)

Structure (SMILES): CC[C@H](C)[C@H](NC(=O)[C@@H](NC(=O)[C@H](Cc1cnc[nH]1)NC(=O)[C@@H]1CCCN1C(=O)[C@@H](NC(=O)[C@H](CC(C)C)NC(=O)[C@H](CO)NC(=O)[C@H](CC(C)C)NC(=O)[C@@H](N)Cc1ccccc1)[C@@H](C)CC)C(C)C)C(=O)N[C@@H](CO)C(=O)N[C@@H](C)C(=O)N[C@H](C(=O)N1CCC[C@H]1C(=O)N[C@@H](Cc1cnc[nH]1)C(=O)N[C@H](C(=O)N[C@H](C(=O)N[C@@H](CC(N)=O)C(=O)N[C@@H](C)C(=O)N[C@@H](CC(C)C)C(=O)N[C@@H](CO)C(=O)N[C@@H](CC(N)=O)C(=O)N[C@@H](CC(C)C)C(N)=O)C(C)C)C(C)C)[C@@H](C)CC [FLSLIPHVISAIPHVVNALSNL]
- MIC (Klebsiella pneumoniae): > 189 µM
- MIC [1]: > 218 µM
- MIC [2]: > 218 µM
- MIC (Candida albicans): > 218 µM

Structure (SMILES): CC[C@H](C)[C@H](NC(=O)[C@H](CC(C)C)NC(=O)[C@H](C)NC(=O)[C@@H]1CCCN1C(=O)[C@H](CC(C)C)NC(=O)CN)C(=O)N[C@@H](CO)C(=O)N[C@@H](Cc1c[nH]c2ccccc12)C(=O)N[C@@H](CO)C(=O)N[C@@H](CCCCN)C(=O)N[C@@H](CCCN=C(N)N)C(=O)N[C@@H](CCCCN)C(=O)N[C@@H](CCCN=C(N)N)C(=O)N[C@@H](CCC(N)=O)C(=O)N[C@@H](CCC(N)=O)C(N)=O [GLPALISWSKRKRQQ]
- MIC (Staphylococcus aureus): 53.3 µM (≈ 94.1 µg/mL)
- MIC (Bacillus subtilis): ≥ 40 µM
- MIC (Escherichia coli): > 53.4 µM

Structure (SMILES): CC[C@H](C)[C@H](N)C(=O)N[C@@H](CC(N)=O)C(=O)N[C@@H](Cc1c[nH]c2ccccc12)C(=O)N[C@@H](CC(C)C)C(=O)N[C@@H](CCCCN)C(=O)N[C@@H](CC(C)C)C(=O)NCC(=O)N[C@@H](CCCCN)C(=O)N[C@@H](CCCCN)C(=O)N[C@H](C(=O)N[C@@H](CC(C)C)C(=O)NCC(=O)N[C@@H](C)C(=O)N[C@H](C(N)=O)[C@@H](C)CC)[C@@H](C)CC [INWLKLGKKILGAI]
- MIC (Bacillus subtilis): 25 µM (≈ 39.2 µg/mL)
- MIC (Escherichia coli): 67.5 µM (≈ 106 µg/mL)

Further lines, results first:

- MIC (Bacillus subtilis): ≥ 100 µM
- MIC (Escherichia coli): > 100 µM
Structure (SMILES): CC[C@H](C)[C@H](N)C(=O)N[C@@H](CC(N)=O)C(=O)N[C@@H](Cc1c[nH]c2ccccc12)C(=O)N[C@@H](CO)C(=O)N[C@@H](CO)C(=O)N[C@H](C(=O)N[C@@H](Cc1ccccc1)C(=O)N[C@@H](CCC(=O)O)C(=O)N[C@@H](CO)C(=O)N[C@H](C(=O)N[C@@H](CO)C(=O)N[C@@H](CC(N)=O)C(=O)N[C@@H](CC(C)C)C(=O)N[C@H](C(N)=O)C(C)C)C(C)C)[C@@H](C)CC [INWSSIFESVSNLV]

- MIC [1]: > 64 µM
- MIC [3]: 4 µM (≈ 6.49 µg/mL)
- MIC [2]: > 64 µM
- MIC (Acinetobacter baumannii): ≥ 64 µM
- MIC [8]: > 64 µM
Structure (SMILES): CC[C@H](C)[C@H](NC(=O)[C@H](Cc1ccc(O)cc1)NC(=O)[C@H](CCCCN)NC(=O)[C@H](CCCCN)NC(=O)[C@H](CC(C)C)NC(=O)[C@H](CC(C)C)NC(=O)[C@H](CCCCN)NC(=O)[C@H](CCCCN)NC(=O)[C@@H](NC(=O)[C@H](CC(C)C)NC(=O)[C@@H](N)CCCCN)C(C)C)C(=O)N[C@H](C(=O)N[C@@H](Cc1ccccc1)C(=O)O)[C@@H](C)O [KLVKKLLKKYITF]

- MIC (Bacillus subtilis): 20 µM (≈ 35.2 µg/mL)
- MIC (Escherichia coli): 25 µM (≈ 44 µg/mL)
Structure (SMILES): CC[C@H](C)[C@H](NC(=O)[C@H](CCCCN)NC(=O)[C@H](CCCCN)NC(=O)[C@H](Cc1c[nH]c2ccccc12)NC(=O)[C@@H](NC(=O)[C@@H](N)CC(N)=O)[C@@H](C)CC)C(=O)N[C@@H](Cc1ccccc1)C(=O)N[C@@H](CCC(=O)O)C(=O)N[C@@H](CCCCN)C(=O)N[C@H](C(=O)N[C@@H](CCCCN)C(=O)N[C@@H](CC(N)=O)C(=O)N[C@@H](CC(C)C)C(=O)N[C@H](C(N)=O)C(C)C)C(C)C [NIWKKIFEKVKNLV]

- MIC [9]: 27.3 µM (≈ 37.5 µg/mL)
- MIC [1]: 54.7 µM (≈ 75 µg/mL)
- MIC [2]: > 72.9 µM
- MIC [10]: 54.7 µM (≈ 75 µg/mL)
Structure (SMILES): CC(C)C[C@H](NC(=O)[C@@H]1CCCN1C(=O)[C@H](CCCCN)NC(=O)[C@@H]1CCCN1C(=O)[C@H](Cc1ccc(O)cc1)NC(=O)[C@H](CCCCN)NC(=O)[C@H](Cc1c[nH]c2ccccc12)NC(=O)[C@@H](N)CCCN=C(N)N)C(=O)N[C@@H](CCCCN)C(=O)N[C@@H](CCCN=C(N)N)C(=O)O [RWKYPKPLKR]

- MIC (Staphylococcus aureus): 100 µM (≈ 268 µg/mL)
- MIC (Escherichia coli): 20 µM (≈ 53.6 µg/mL)
- MIC (Candida albicans): 100 µM (≈ 268 µg/mL)
Structure (SMILES): CC[C@H](C)[C@H](NC(=O)[C@H](CCCCN)NC(=O)[C@H](CS)NC(=O)[C@H](C)NC(=O)[C@@H](NC(=O)[C@H](Cc1ccccc1)NC(=O)CNC(=O)[C@H](CC(C)C)NC(=O)CNC(=O)[C@@H](NC(=O)[C@H](CCCN=C(N)N)NC(=O)CNC(=O)[C@H](CC(C)C)NC(=O)[C@H](CC(N)=O)NC(=O)[C@H](CCCCN)NC(=O)[C@H](CC(C)C)NC(=O)[C@@H](NC(=O)[C@H](CO)NC(=O)[C@H](CC(C)C)NC(=O)[C@H](CCSC)NC(=O)[C@@H](N)CO)C(C)C)C(C)C)C(C)C)C(=O)N[C@@H](CC(N)=O)C(=O)N[C@@H](CCCCN)C(=O)N[C@@H](CCC(N)=O)C(=O)N[C@@H](CS)C(=O)O [SMLSVLKNLGRVGLGFVACKINKQC]

- MIC (Staphylococcus aureus): > 32 µM
- MIC [6]: > 32 µM
- MIC [1]: 32 µM (≈ 69.5 µg/mL)
- MIC (Acinetobacter baumannii): ≥ 32 µM
- MIC [7]: 32 µM (≈ 69.5 µg/mL)
- MIC (Escherichia coli): > 32 µM
Structure (SMILES): C[C@H](NC(=O)[C@@H]1CCCN1C(=O)[C@H](CCCN=C(N)N)NC(=O)[C@H](Cc1ccc(O)cc1)NC(=O)CNC(=O)[C@H](CC(N)=O)NC(=O)[C@@H](N)CO)C(=O)N[C@@H](Cc1ccc(O)cc1)C(=O)N[C@@H](CCCN=C(N)N)C(=O)N1CCC[C@H]1C(=O)N[C@@H](C)C(=O)N[C@@H](Cc1ccc(O)cc1)C(=O)N[C@@H](CCCN=C(N)N)C(=O)N1CCC[C@H]1C(=O)N[C@@H](CO)C(=O)N[C@@H](Cc1ccc(O)cc1)C(=O)N[C@@H](CCCN=C(N)N)C(=O)N1CCC[C@H]1C(N)=O [SNGYRPAYRPAYRPSYRP]
